Data on 15 compounds can be found in paper PMC12123460 (ACS Central Science, 2025).

The target of data set [1] is T1, murine κ opioid receptor (KOR) (Mus musculus, UniProt P33534). As to the kind of experiment: 3H-naltrexone radioligand competition binding, KOR membranes.
Data set [2] concerns the target full length human μ opioid receptor (MOR) (Homo sapiens, UniProt P35372). As to the kind of experiment: 3H-naltrexone radioligand competition binding, MOR membranes. (Loss of bound radioactivity is the signal in a displacement assay; it reports binding, not function.)
Data set [3] has as its target human MOR (Homo sapiens, UniProt P35372). As to the kind of experiment: Live cell GloSensor cAMP assay, antagonist mode, MOR-expressing HEK293T cells. The conditions noted are these: 10 μM forskolin, DAMGO at EC80. (Changes in cAMP serve as a functional read-out for many G protein-coupled receptors.)
Data set [4] deals with T1, murine κ opioid receptor (KOR). As to the kind of experiment: biochemical.
Data set [5] deals with murine KOR (Mus musculus, UniProt P33534). As to the kind of experiment: Live cell GloSensor cAMP assay, antagonist mode, KOR-expressing HEK293T cells. Conditions: for KOR Signaling: GloSensor cAMP, HEK293T, 10 μM forskolin, salvinorin A at EC80.
In data set [6] the test system is C56BL/6 mice.
Data set [7] relates to C56BL/6 mice. As to the kind of experiment: Opioid withdrawal symptoms assay in morphine tolerant mice. The conditions noted are these: 1 h after morphine 20 mg/kg, naloxone 10 mg/kg, #020_E1 30 mg/kg.
Data set [8] deals with C56BL/6 mice. As to the kind of experiment: Conditioned place aversion in morphine tolerant mice.
Where [9] appears, read: read-out: MOR Ki estimate (†), calculated from the Cheng–Prusoff equation based on a single point at 33 μM ligand.
The mark [10] stands for this setting: read-out: KOR Ki binding affinity, 3H-naltrexone displacement, mean from three dose response experiments.
Setting [11] is: read-out: MOR Ki binding affinity, 3H-naltrexone displacement, mean from three dose response experiments.

“Also recorded” adds a separate entry of the source. Like-named read-outs stand apart in the source and are kept apart here.

Take `CCCCC1=C[C@@H]2[C@H](C(=O)OC)C[C@@]1(C)[C@H](C)N2C[C@@H]1CCO1` (racemic) [(±)-#09]: the inhibition constant (Ki) (in general, a measure of affinity in units of concentration, obtained from inhibition or displacement) in data set [1] (read-out: KOR Ki estimate (†), calculated from the Cheng–Prusoff equation based on a single point at 33 μM ligand) was 12000 nM; in data set [2] (setting [9]), 14000 nM.
Turning to `CCn1cc(CN2C3C=C(c4cccc(O)c4)C(C)(CC3C(=O)OC)C2C)cn1` (stereo not drawn) [#020_E2], in data set [3], the “MOR Signaling” value was “Antagonist”. In data set [4], this compound came in with a Ki of 1.1 nM. Besides, in data set [5], the EC50 (commonly the concentration needed to bring the measured effect to its halfway point) was determined as 380 nM and the “KOR Signaling” value is “Antagonist”.
As for `COC(=O)C1CC2(C)C(c3cccc(O)c3)=C(C)C1N(C)C2C` (stereo not drawn) [#019_E2], the “MOR Signaling” value in data set [3] is listed as “Antagonist”. Also, the “KOR Signaling” value in data set [5] is reported as “Inverse Agonist”.
In the case of 3H-naltrexone [reference compound], the Kd in data set [1] (read-out: Kd of the radioligand in KOR membrane preparation, saturation experiments, nonspecific binding with 33 μM unlabeled naloxone) was determined as 2.71 nM; in data set [2] (read-out: Kd of the radioligand in MOR membrane preparation, saturation experiments, nonspecific binding with 33 μM unlabeled naloxone) it was 1.97 nM.
Regarding `COC(=O)C1CC2(C)C(c3ccco3)=CC1N(C(C)CN1CCCC1)C2C` (racemic) [(±)-#11], the Ki in data set [1] (setting [10]) was determined as 400 nM.
For the compound `C=CCN1CC[C@]23c4c5ccc(O)c4O[C@H]2C(=O)CC[C@@]3(O)[C@H]1C5` [naloxone], in data set [6] (blocking of 20mg/kg morphine induced analgesia, dose response), the “i.p. dose required to return tail flick latency to baseline levels” value is 10 mg/kg. Moreover, the “Precipitated opioid withdrawal symptoms (jumps, wet-dog shakes, rearing, forepaw shakes)” value in data set [7] was “induced behaviors consistent with aversive withdrawal”. For the same compound, in data set [8] (morphine tolerant mice, withdrawal precipitated by the antagonist), the “Time spent in the antagonist-paired chamber pre- vs post-conditioning” value is “marked decrease in time spent in the antagonist-paired chamber; also recorded: significantly less time in the chamber”. Moreover, the CPA score result in data set [8] (test minus pretest time in drug-paired compartment) is recorded as “avoided the treatment compartment to a greater extent”.
With `CCn1cc(CN2C3C(C)=C(c4cccc(O)c4)C(C)(CC3C(=O)OC)C2C)cn1` (stereo not drawn) [#031_E2], in data set [3], the “MOR Signaling” value was “Antagonist”. Besides, in data set [5], the “KOR Signaling” value is recorded as “Inverse Agonist”.
As to `COC(=O)[C@@H]1C[C@]2(C)C(C)=C(C)[C@H]1N(Cc1cnn(CC(F)F)c1)[C@H]2C` (racemic) [(±)-#56], in data set [2] (setting [11]), the inhibition constant (Ki) was found to be 8800 nM.
As to `CCN1CC(N2[C@@H]3C=C(c4ccccc4O)[C@@](C)(C[C@H]3C(=O)OC)[C@@H]2C)C1` (racemic) [(±)-#05], the Ki in data set [1] (setting [10]) is 8000 nM; in data set [2] (setting [9]) it was 16000 nM.
Regarding `COC(=O)[C@@H]1C[C@]2(C)C(c3ccc(O)c(OC)c3)=C[C@H]1N(CCN)[C@H]2C` [(+)-#33], the Ki was 1200 nM in data set [1] (setting [10]) and 980 nM in data set [2] (setting [11]).
Take `COC(=O)C1CC2(C)C(c3cccc(O)c3)=CC1N(CCOc1c(C)cccc1C)C2C` (stereo not drawn) [#017_E2]: the “MOR Signaling” value in data set [3] is on record as “Antagonist”. The “KOR Signaling” value in data set [5] is listed as “Antagonist”.
For `CC1=C(c2cccc(O)c2)C2(C)CCC1N(CCc1ccccc1)C2C` (stereo not drawn) [#030_E2], in data set [3], the “MOR Signaling” value was “Antagonist”. The “KOR Signaling” value in data set [5] is “Inverse Agonist”.
Take `COC(=O)[C@@H]1C[C@]2(C)C(c3cc(F)cc(F)c3)=C[C@H]1N(C1CN(CCO)C1)[C@H]2C` (racemic) [(±)-#57]: the Ki is 1100 nM in data set [1] (setting [10]) and 5000 nM in data set [2] (setting [11]).
Take `CCN1[C@@H]2C=C(C)[C@@](C)(C[C@H]2C(=O)OC)[C@@H]1C` (racemic) [(±)-#001]: the Ki in data set [2] (setting [11]) was 7100 nM.
Regarding `CN1CC[C@]23c4c5ccc(O)c4O[C@H]2[C@@H](O)C=C[C@H]3[C@H]1C5` [morphine], the Tail flick latency result in data set [6] (20 mg/kg i.p.) is given as “significantly increased tail flick latency”.
